pKi: −log10 of the molar value. Like-named read-outs stand apart in the source and are kept apart here.

The values below come from patent publication US7470711B2, “Piperidinyl substituted cyclohexane-1,4-diamines” (Janssen Pharmaceutica N.V., priority 2005, dated 2008).

Data set [1] deals with T1, α1a-AR (Homo sapiens, UniProt P35348).
T1 construct: expressed in transfected cells; host or cells: COS-7 cells (membranes)
T1 sequence (P35348 1-455 isoform P35348-4): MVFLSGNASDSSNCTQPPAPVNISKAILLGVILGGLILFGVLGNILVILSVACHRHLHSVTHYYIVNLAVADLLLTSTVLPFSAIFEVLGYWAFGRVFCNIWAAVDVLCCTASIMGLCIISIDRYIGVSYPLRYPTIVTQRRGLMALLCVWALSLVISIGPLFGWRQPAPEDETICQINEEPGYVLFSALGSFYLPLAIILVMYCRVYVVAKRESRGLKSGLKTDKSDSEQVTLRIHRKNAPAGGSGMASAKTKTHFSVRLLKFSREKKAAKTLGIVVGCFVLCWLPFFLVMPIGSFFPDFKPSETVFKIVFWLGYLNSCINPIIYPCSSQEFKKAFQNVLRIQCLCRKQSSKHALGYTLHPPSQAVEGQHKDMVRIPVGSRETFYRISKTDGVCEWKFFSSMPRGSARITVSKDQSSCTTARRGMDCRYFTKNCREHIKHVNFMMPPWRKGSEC
In words: α1-Adrenergic receptor radio-ligand binding assay, α1a subtype. How it is done: (§1) Membranes were prepared from COS-7 cells (African Green monkey kidney SV40-transformed cells) that had been transfected with one of the three α1-AR subtypes (Genbank accession number for the α1a subtype: AF013261; Genbank accession number for the α1b subtype: NM000679; Genbank accession number for the α1d subtype: NM000678) using the following method: COS cells from ten 100 mm tissue culture plates were scraped into a 5 mL volume of TE (a mixture of 50 mM Tris-HCl, 5 mM EDTA, pH 7.4). […] The disrupted cells were centrifuged at 1000×g for 10 min at 4° C. Supernatants were centrifuged at 34,500×g for 20 min at 4° C. The membrane pellets were suspended in a 2 mL volume of TNE (a mixture of 50 mM Tris-HCl, 5 mM EDTA and 150 mM NaCl at pH 7.4). An aliquot of the membrane suspension was stored at −70° C. until use. The protein concentration was determined using the BioRad “DC” protein assay kit following membrane solubilization with Triton X-100.
(§2) Triplicate determinations of radio-ligand binding in the presence of increasing concentrations of testing compound were made. The reagents were added to 96-well polypropylene plate wells. […] The plate was incubated at rt for 1 hr. The contents of the wells were filtered through a glass filter (type C) (GF/C) membrane Unifilter plate (Packard Instruments) using the Packard Filtermate cell harvester. The filter plates were dried in a vacuum oven for 30 min at 40° C. 25 μL Microscint 20 liquid scintillation fluid (Packard Instuments) was added to each well. The radioactive content was analyzed in the TopCount microplate scintillation counter (Packard Instruments).

The target of data set [2] is T2, α1b-AR (Homo sapiens, UniProt P35368).
T2 construct: expressed in transfected cells; host or cells: COS-7 cells (membranes)
T2 sequence (P35368 1-520): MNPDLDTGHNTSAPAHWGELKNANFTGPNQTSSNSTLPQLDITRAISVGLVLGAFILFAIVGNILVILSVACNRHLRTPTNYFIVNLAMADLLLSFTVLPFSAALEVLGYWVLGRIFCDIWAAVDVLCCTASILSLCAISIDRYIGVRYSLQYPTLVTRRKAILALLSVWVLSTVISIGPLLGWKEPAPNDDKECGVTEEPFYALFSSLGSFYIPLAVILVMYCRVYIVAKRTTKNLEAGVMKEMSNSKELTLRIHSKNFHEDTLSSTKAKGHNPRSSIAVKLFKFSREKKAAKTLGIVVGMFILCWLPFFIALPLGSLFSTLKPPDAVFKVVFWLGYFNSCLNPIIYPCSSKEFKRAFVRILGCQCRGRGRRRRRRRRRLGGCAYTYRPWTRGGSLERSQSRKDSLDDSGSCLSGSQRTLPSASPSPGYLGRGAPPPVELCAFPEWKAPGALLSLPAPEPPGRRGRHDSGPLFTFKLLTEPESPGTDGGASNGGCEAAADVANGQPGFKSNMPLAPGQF
In words: α1-Adrenergic receptor radio-ligand binding assay, α1b subtype. How it is done:
as §1, §2

Data set [3] addresses T3, α1d-AR (Homo sapiens, UniProt P25100).
T3 construct: expressed in transfected cells; host or cells: COS-7 cells (membranes)
T3 sequence (P25100 1-572): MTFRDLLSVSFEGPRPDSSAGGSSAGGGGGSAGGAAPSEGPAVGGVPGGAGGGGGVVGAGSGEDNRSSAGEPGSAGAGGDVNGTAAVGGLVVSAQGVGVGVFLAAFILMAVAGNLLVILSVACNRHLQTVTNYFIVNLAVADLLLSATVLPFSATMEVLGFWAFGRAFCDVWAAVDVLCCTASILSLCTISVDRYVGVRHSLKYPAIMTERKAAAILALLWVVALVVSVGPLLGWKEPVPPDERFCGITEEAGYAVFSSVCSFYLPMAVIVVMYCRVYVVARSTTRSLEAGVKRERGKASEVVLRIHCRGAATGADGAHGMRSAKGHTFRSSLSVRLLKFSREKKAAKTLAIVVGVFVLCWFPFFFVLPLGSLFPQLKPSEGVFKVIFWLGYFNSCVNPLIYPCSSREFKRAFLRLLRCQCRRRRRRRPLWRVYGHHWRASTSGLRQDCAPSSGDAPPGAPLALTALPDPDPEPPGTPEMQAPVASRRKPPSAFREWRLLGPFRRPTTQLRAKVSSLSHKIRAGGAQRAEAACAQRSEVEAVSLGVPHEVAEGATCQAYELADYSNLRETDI
In words: α1-Adrenergic receptor radio-ligand binding assay, α1d subtype. How it is done: as §1, §2

The subject of data set [4] is normal rats and rats with bladder hypertrophy secondary to outlet obstruction. The settings on record: intrathecally administered; cited from earlier work.
The test system of data set [5] is BPH patients. The settings on record: large clinical trials of BPH patients; cited from earlier work.
Data set [6] deals with α1a and α1d subtypes over the α1b subtype. Particulars: cited from earlier work.
Where [7] appears, read: 125I-HEAT, membranes of COS-7 cells transfected with α1a subtype, rt 1 hr, read-out: Receptor Binding, Ki α1a-AR.
The mark [8] stands for this setting: 125I-HEAT, membranes of COS-7 cells transfected with α1b subtype, rt 1 hr, read-out: Receptor Binding, Ki α1b-AR.
Where [9] appears, read: 125I-HEAT, membranes of COS-7 cells transfected with α1d subtype, rt 1 hr, read-out: Receptor Binding, Ki α1d-AR.

What is called pKi is the Ki on a negative log10 scale, so that one unit is a factor of ten. By melting point is commonly meant the temperature, or range, at which the solid turns liquid. `COc1ccc(Cl)cc1S(=O)(=O)N[C@H]1CC[C@@H](N2CCC(c3ccccc3OCC(F)(F)F)CC2)CC1` [Cpd 17, 5-chloro-2-methoxy-N-cis-(4-{4-[2-(2,2,2-trifluoro-ethoxy)-phenyl]-piperidin-1-yl}-cyclohexyl)-benzenesulfonamide] returned a melting point of 200 °C. Also, the pKi in data set [1] (setting [7]) was 8.21. Further, the pKi in data set [2] (setting [8]) was 6.67. For the same compound, the pKi in data set [3] is 8.82.
As to `COc1ccc(Cl)cc1S(=O)(=O)N[C@H]1CC[C@H](N2CCC(c3ccccc3OCC(F)(F)F)CC2)CC1` [Cpd 18, 5-chloro-2-methoxy-N-trans-(4-{4-[2-(2,2,2-trifluoro-ethoxy)-phenyl]-piperidin-1-yl}-cyclohexyl)-benzenesulfonamide], the melting point stood at 197 °C. Moreover, the pKi in data set [1] was 7.98. Besides, the pKi in data set [2] (setting [8]) is 6.15. Also, the pKi in data set [3] (setting [9]) is 7.44.
Turning to `COc1cc2nc(N3CCN(C(=O)C4COc5ccccc5O4)CC3)nc(N)c2cc1OC` (stereo not drawn) [doxazosin], the micturition pressure result in data set [4] is reported as “decrease in micturition pressure”.
Turning to `CCOc1ccccc1OCCN[C@H](C)Cc1ccc(OC)c(S(N)(=O)=O)c1` [Tamsulosin], in data set [5], the “effect on obstructive and irritative symptoms” value is “improvement in both obstructive and irritative symptoms”; the side effects seen result was “cardiovascular and erectile dysfunction side effects were seen”. In addition, the “selectivity for the α1a and α1d subtypes over the α1b subtype” value in data set [6] is recorded as “about 15 fold”.
Turning to `O=S(=O)(N[C@H]1CC[C@@H](N2CCC(c3ccccc3OCC(F)(F)F)CC2)CC1)c1ccc2c(c1)OCCO2` [Cpd 13, 2,3-dihydro-benzo[1,4]dioxine-6-sulfonic acid cis-(4-{4-[2-(2,2,2-trifluoro-ethoxy)-phenyl]-piperidin-1-yl}-cyclohexyl)-amide], the melting point stood at 190 °C. Moreover, in data set [1], the pKi was 8.40. Further, the pKi in data set [2] is 7.04. Also, the pKi in data set [3] was 8.52.
Take `O=S(=O)(N[C@H]1CC[C@@H](N2CCC(c3ccccc3OCC(F)(F)F)CC2)CC1)c1ccc(OC(F)F)cc1` [Cpd 25, 4-difluoromethoxy-N-cis-(4-{4-[2-(2,2,2-trifluoro-ethoxy)-phenyl]-piperidin-1-yl}-cyclohexyl)-benzenesulfonamide]: the melting point came to 196 °C. For the same compound, in data set [1] (setting [7]), the pKi was 8.27. For the same compound, in data set [2] (setting [8]), the pKi is 7.12. In data set [3] (setting [9]), the pKi was 8.57.
On to `COc1ccc(S(=O)(=O)N[C@H]2CC[C@H](N3CCC(c4ccccc4OCC(F)F)CC3)CC2)cc1OC` [Cpd 30, N-trans-(4-{4-[2-(2,2-difluoro-ethoxy)-phenyl]-piperidin-1-yl}-cyclohexyl)-3,4-dimethoxy-benzenesulfonamide], for which the melting point was 197 °C. The compound also showed a pKi in data set [1] of 7.52. Also, the pKi in data set [2] (setting [8]) is 6.17. The pKi in data set [3] (setting [9]) was 7.07.
